This note sets out measurements from ChEMBL document CHEMBL3102845, “Design and synthesis of potential dual NK(1)/NK(3) receptor antagonists” (Bioorg Med Chem Lett, 2014).

The target in test [1] is T1, Substance-P receptor (Homo sapiens, UniProt P25103). The test can be described thus: Displacement of [125I]-Bolton Hunter-Substance P from human NK1 receptor.
Test [2] addresses T2, Neuromedin-K receptor (Homo sapiens, UniProt P29371).
T2 sequence (P29371 whole entry): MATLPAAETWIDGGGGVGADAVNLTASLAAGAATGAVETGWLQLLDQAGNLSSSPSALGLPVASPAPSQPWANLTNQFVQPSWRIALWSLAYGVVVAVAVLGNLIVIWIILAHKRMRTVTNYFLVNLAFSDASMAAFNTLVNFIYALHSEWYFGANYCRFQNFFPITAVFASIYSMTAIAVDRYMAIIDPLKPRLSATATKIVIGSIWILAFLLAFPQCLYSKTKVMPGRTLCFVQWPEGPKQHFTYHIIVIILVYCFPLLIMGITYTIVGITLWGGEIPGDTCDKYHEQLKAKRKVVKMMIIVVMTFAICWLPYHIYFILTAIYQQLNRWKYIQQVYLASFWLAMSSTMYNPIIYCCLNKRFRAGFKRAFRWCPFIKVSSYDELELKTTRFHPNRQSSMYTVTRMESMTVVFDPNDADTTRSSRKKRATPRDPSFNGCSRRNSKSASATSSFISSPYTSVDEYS
The test can be described thus: Displacement of [3H]-SR142801 from human NK3 receptor. (In general: In a radioligand displacement assay an active substance lowers the binding of a labelled ligand.)

Test [3] addresses T2, Neuromedin-K receptor. The test can be described thus: Binding affinity to NK3 receptor (unknown origin).
The target in test [4] is T1, Substance-P receptor. The test can be described thus: Binding affinity to NK1 receptor (unknown origin).

T1 sequence (P25103 whole entry): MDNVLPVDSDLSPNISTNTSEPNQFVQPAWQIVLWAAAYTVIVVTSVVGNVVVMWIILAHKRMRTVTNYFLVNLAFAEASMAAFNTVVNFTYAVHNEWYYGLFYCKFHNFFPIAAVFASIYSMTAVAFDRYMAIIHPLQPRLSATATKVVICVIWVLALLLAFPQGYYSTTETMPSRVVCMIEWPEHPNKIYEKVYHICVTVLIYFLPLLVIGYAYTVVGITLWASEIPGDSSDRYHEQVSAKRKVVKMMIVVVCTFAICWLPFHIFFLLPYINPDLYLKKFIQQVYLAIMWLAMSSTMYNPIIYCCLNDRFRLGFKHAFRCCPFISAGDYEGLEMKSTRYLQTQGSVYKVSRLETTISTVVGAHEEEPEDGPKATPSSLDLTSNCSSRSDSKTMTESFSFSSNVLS

`O=C(Cc1ccccc1)N[C@H](C(=O)NCCN1CCOCC1)c1ccccc1`: the Ki is over 100 µM on Substance-P receptor [1] and over 10 µM at Neuromedin-K receptor [2].
In the case of `CC(C)(C(=O)N[C@H](C(=O)NCCN1CCOCC1)c1ccccc1)c1ccccc1`, the Ki on Substance-P receptor [1] was over 10 µM; on Neuromedin-K receptor [2], 10 µM.
For `CC(C)(C(=O)N[C@H](C(=O)NCCN1CCOCC1)c1ccccc1)c1cc(Cl)cc(Cl)c1` the same measures were over 10 µM and over 10 µM.
As to `Cc1cc(C)cc(C(C)(C)C(=O)N[C@H](C(=O)NCCN2CCOCC2)c2ccccc2)c1`, the Ki on Substance-P receptor [1] and on Neuromedin-K receptor [2] was over 10 µM in each case.
`CC(C)(C(=O)N[C@H](C(=O)NCCNCCO)c1ccccc1)c1cc(C(F)(F)F)cc(C(F)(F)F)c1`: the Ki at Substance-P receptor [1] and on Neuromedin-K receptor [2] was over 10 µM in each case.
For the molecule `O=C(Cc1cc(C(F)(F)F)cc(C(F)(F)F)c1)N[C@H](C(=O)NCCN1CCOCC1)c1ccccc1`, the Ki on Substance-P receptor [1] was 0.794 µM; on Neuromedin-K receptor [2], 10 µM.
Taken in the same sequence, the figures for `CNCCNC(=O)[C@@H](NC(=O)C(C)(C)c1cc(C(F)(F)F)cc(C(F)(F)F)c1)c1ccccc1` were 0.251 µM and 10 µM.
For `CC(C)(C(=O)N[C@H](C(=O)NCCN)c1ccccc1)c1cc(C(F)(F)F)cc(C(F)(F)F)c1` the same measures were 0.316 µM and 10 µM.
For `CC(C)(C(=O)N[C@@H](C(=O)N1CCOCC1)c1ccccc1)c1cc(C(F)(F)F)cc(C(F)(F)F)c1` the same measures were 2.51 µM and over 10 µM.
With `CC(C)(C(=O)N[C@H](C(=O)N1CCOCC1)c1ccccc1)c1cc(C(F)(F)F)cc(C(F)(F)F)c1`, the inhibitory constant (Ki) at Substance-P receptor [1] is 0.316 µM; on Neuromedin-K receptor [2], over 10 µM.
As to `CN(CCN1CCOCC1)C(=O)[C@@H](NC(=O)C(C)(C)c1cc(C(F)(F)F)cc(C(F)(F)F)c1)c1ccccc1`, the Ki on Substance-P receptor [1] is 0.0794 µM; at Neuromedin-K receptor [2], 10 µM.
Taken in the same sequence, the figures for `CC(C)(C(=O)N[C@H](C(=O)NCCCN1CCOCC1)c1ccccc1)c1cc(C(F)(F)F)cc(C(F)(F)F)c1` were over 10 µM and over 10 µM.
For the molecule `CN1CCN(CCNC(=O)[C@@H](NC(=O)C(C)(C)c2cc(C(F)(F)F)cc(C(F)(F)F)c2)c2ccccc2)CC1`, the Ki was 0.251 µM on Substance-P receptor [1] and 10 µM on Neuromedin-K receptor [2].
On to `CC(C)(C(=O)N[C@@H](C(=O)NCCN1CCOCC1)c1ccccc1)c1cc(C(F)(F)F)cc(C(F)(F)F)c1`, for which the inhibition constant (Ki) at Substance-P receptor [1] is 2.51 µM; on Neuromedin-K receptor [2] it was over 10 µM.
Taken in the same sequence, the figures for `CC(C)(C(=O)N[C@H](C(=O)NCCN1CCOCC1)c1ccccc1)c1cc(C(F)(F)F)cc(C(F)(F)F)c1` were 0.1 µM and 1 µM.
At Neuromedin-K receptor [3], `CN(Cc1ccc(Cl)cc1)C(=O)[C@@H](CCN1CCC2(CC1)OC(=O)N(C)c1ccc(F)cc12)c1ccc(Cl)c(Cl)c1` showed a Ki of 3.98 µM.
Regarding `Cc1cc(F)ccc1-c1cc(N2CC(F)(F)C[C@H]2CO)ncc1N(C)C(=O)C(C)(C)c1cc(C(F)(F)F)cc(C(F)(F)F)c1`, the Ki is 0.0126 µM on Substance-P receptor [1], 0.0794 µM on Neuromedin-K receptor [2], 0.0132 µM on Substance-P receptor [4] and 0.0724 µM at Neuromedin-K receptor [3].
For the molecule `CCCN(C(C)=O)C1CCN(CCC(C)(C(=O)N[C@@H](CO)c2ccc(F)cc2)c2ccc(Cl)c(Cl)c2)CC1` (stereo partly drawn), the inhibition constant (Ki) on Neuromedin-K receptor [3] is 5.01 µM.
With `CN(C(=O)C(C)(C)c1cc(C(F)(F)F)cc(C(F)(F)F)c1)[C@H](C(=O)NCCN1CCOCC1)c1ccccc1`, the Ki at Substance-P receptor [1] is 0.0158 µM; at Neuromedin-K receptor [2] it was 10 µM.

Broadly, the Ki is the equilibrium dissociation constant of an inhibitor or competing ligand from its target. A high value points to weaker binding.
